Experiments:
Format in all cases: biochemical
[1] = biological target: Caspase-1 (Homo sapiens (Human), UniProt P29466); experiment: Caspase-1 assay, inhibition of caspase activity (Ac-YVAD-pNA substrate); conditions: human caspase-1, Ac-YVAD-pNA 200 μM, read at 405 nm
Description: (§1) Assay for the Inhibition of Caspase Activity and Determination of IC50 Values
(§2) Human caspases were purchased from Enzo Biosciences and used according to the manufacturer's instructions. An exemplary caspase assay, for Caspase-1, is provided below:
Caspase-1 was diluted to 10 U/μl in assay buffer consisting of 50 mM HEPES, pH 7.4, 100 mM NaCl, 0.1% CHAPS, 1 mM EDTA, 10% glycerol and 10 mM DTT.
45 μl of assay buffer was added into ½ volume microtiter plate. The plate was allowed to equilibrate to assay temperature. 5 μl of Caspase-1 (10 U/μl) was added to each appropriate well. Two 2 blank wells containing just assay buffer without Caspase-1 were included on the plate.
The reaction was started by the addition of 50 μl Ac-YVAD-pNA substrate, for a final substrate concentration of 200 μM. The reaction was continuously monitored at 405 nm.
(§3) The data was graphed as OD405 nm vs time, and the slope was determined over the linear portion of the curve. The rates in OD/min were converted to substrate/min using an extinction coefficient for p-nitroaniline of 10,500 M-1 cm-1, and were adjusted for pathlength of sample. Similarly assays were conducted for Caspase-3, Caspase-8 and Caspase-9. The Table below provides a summary of the binding data for the compounds prepared according to Examples 1-4: […]

[2] = biological target: Caspase-8 (Homo sapiens (Human), UniProt Q14790); experiment: Caspase-8 assay, inhibition of caspase activity; conditions: human caspase-8
Description: as §1, §2, §3

[3] = biological target: Caspase-9 (Homo sapiens (Human), UniProt P55211); experiment: Caspase-9 assay, inhibition of caspase activity; conditions: human caspase-9
Description: as §1, §2, §3

[4] = biological target: Caspase-3 (Homo sapiens (Human), UniProt P42574); experiment: Caspase-3 assay, inhibition of caspase activity; conditions: human caspase-3
Description: as §1, §2, §3

Chain of Caspase-1 (P29466 120-297): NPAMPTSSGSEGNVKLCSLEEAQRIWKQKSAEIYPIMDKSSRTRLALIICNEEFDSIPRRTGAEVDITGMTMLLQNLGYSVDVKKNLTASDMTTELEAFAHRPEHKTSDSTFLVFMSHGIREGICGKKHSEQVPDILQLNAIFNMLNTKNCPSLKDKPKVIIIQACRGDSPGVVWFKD
Chain of Caspase-1 (P29466 317-404): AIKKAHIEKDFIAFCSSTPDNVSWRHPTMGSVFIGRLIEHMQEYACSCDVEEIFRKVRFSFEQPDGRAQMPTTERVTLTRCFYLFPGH
Chain of Caspase-3 (P42574 29-175): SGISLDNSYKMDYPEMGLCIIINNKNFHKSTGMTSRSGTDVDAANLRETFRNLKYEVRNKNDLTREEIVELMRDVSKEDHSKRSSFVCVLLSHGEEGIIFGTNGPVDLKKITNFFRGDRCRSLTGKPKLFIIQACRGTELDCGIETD
Chain of Caspase-3 (P42574 176-277): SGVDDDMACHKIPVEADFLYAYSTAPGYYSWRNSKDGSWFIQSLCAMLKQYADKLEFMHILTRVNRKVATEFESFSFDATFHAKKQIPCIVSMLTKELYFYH
Chain of Caspase-9 (P55211 1-315): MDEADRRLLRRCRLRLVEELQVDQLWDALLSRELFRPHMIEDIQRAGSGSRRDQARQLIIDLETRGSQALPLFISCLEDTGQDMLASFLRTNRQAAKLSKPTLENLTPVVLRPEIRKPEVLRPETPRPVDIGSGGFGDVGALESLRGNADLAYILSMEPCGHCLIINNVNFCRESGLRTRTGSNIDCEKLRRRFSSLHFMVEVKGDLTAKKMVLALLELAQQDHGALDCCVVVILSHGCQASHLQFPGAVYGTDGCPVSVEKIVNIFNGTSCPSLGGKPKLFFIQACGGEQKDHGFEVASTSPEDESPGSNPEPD
Chain of Caspase-9 (P55211 331-416): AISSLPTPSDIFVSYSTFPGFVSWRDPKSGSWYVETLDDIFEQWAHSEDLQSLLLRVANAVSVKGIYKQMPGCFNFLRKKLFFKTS
Chain of Caspase-8 (Q14790 217-374): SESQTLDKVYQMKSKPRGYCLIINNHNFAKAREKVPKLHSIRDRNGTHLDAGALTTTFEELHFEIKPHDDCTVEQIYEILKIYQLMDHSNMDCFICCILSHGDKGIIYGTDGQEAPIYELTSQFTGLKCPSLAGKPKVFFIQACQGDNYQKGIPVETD
Chain of Caspase-8 (Q14790 385-479): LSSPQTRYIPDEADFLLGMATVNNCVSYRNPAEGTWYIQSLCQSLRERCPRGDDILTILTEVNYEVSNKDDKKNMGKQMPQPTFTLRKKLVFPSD

| Compound | IC50 [1] | IC50 [2] | IC50 [3] | IC50 [4] |
| --- | --- | --- | --- | --- |
| O=C(O)C[C@H](NC(=O)CN1CCN(Cc2ccccc2)CC1=O)C(=O)COc1c(F)c(F)cc(F)c1F [Example 2, (S)-3-(2-(4-Benzyl-2-oxopiperazin-1-yl)acetamido)-4-oxo-5-(2,3,5,6-tetrafluorophenoxy)pentanoic acid] | 0.004 µM | 0.028 µM | 0.038 µM | 0.032 µM |
| O=C(O)C[C@H](NC(=O)CN1CCN(Cc2ccccc2)C(=O)C1)C(=O)COc1ccnc(C(F)(F)F)n1 [Example 3, (S)-3-(2-(4-Benzyl-3-oxopiperazin-1-yl)acetamido)-4-oxo-5-((2-(trifluoromethyl)pyrimidin-4-yl)oxy)pentanoic acid] | 0.065 µM | 0.396 µM | 1 µM | 1 µM |
| O=C(O)C[C@H](NC(=O)CN1CCN(Cc2ccccc2)C(=O)C1)C(=O)COc1c(F)c(F)cc(F)c1F [Example 1, (S)-3-(2-(4-Benzyl-3-oxopiperazin-1-yl)acetamido)-4-oxo-5-(2,3,5,6-tetrafluorophenoxy)pentanoic acid] | 0.009 µM | 0.132 µM | 0.122 µM | 0.132 µM |
| O=C(O)C[C@H](NC(=O)CN1CCN(S(=O)(=O)c2ccccc2)CC1)C(=O)COc1c(F)c(F)cc(F)c1F [Example 4, (S)-4-oxo-3-(2-(4-(phenylsulfonyl)piperazin-1-yl)acetamido)-5-(2,3,5,6-tetrafluorophenoxy)pentanoic acid] | 0.002 µM | 0.001 µM | 0.107 µM | 0.2 µM |
